Read-outs that look alike come from different tables or passages of the source. Ends that are not written are not given here.
Columns and labels:
brain [1] = conditions: cited from earlier work; for Kin: rat, in vivo
brain [2] = conditions: cited from earlier work
brain [3] = conditions: mouse, in vivo; cited from earlier work
[4] = 15 min post IV injection of radiolabeled peptide, % injected dose, n = 2, ICR-CD-1 mice; described in words
[5] = test system: blood-brain barrier (BBB); experiment: Regional variation in brain influx (MTR, dissected brain regions)
Description: The protocol of the multiple time regression (MTR) analysis to evaluate whether the peptides cross the BBB is described in detail elsewhere. […] Dermorphin and radioiodinated BSA were used as positive and negative control, respectively. […] The exposure time is calculated as the integral of the arterial serum radioactivity over time divided by the radioactivity at time t. The integral is calculated through the trapezoidal rule of the log-transformed data. In the linear part of the curve, assuming a two-compartmental BBB model, data can be fitted using a linear model from which the unidirectional influx rate (Kin), also referred to as unidirectional blood to brain clearance K1 [46], and the initial brain distribution volume (Vi) can be determined using the following equation according to Gjedde and Patlak: Am(T)/Cp(T)=Abrain(T)/Aserum(T)=Kin⋅Θ+Vi with Θ = ∫0TCp(t) ⋅ dt/Cp(T) (1)
Different dissected brain regions were weighed and measured in the gamma counter. The unidirectional influx and initial distribution volume of the iodinated peptides for the different brain regions are determined using Eq 1.
Generally, regression lines were computed using the least squares method. Regression lines of the ratio of the brain-to-serum radioactivity versus the exposure time obtained during the evaluation of the regional brain distribution and the used brain influx mechanism, were statistically compared using the Prism 6 software (GraphPad, La Jolla, USA).

[6] = test system: blood-brain barrier (BBB); experiment: Multiple time regression (MTR) analysis, blood-to-brain influx; type: in vivo, ICR-CD-1 mice
Description: Shortly, 200 μl of the radioiodinated CPP solution (30000 cpm/μl) was injected into the right jugular externalis vein of anesthetized ICR-CD-1 mice, which were then decapitated at 1, 3, 5, 10, 12.5 and 15 min post injection, with first and last time points performed in duplicate, after which brains were collected and measured for radioactivity using a gamma counter (Wallac Wizard 1470, Perkin Elmer). Shortly before decapitation, blood was collected from the left carotid artery, which was centrifuged (10000 g, 15 min at 21°C) in order to measure the radioactivity of blood and serum. Dermorphin and radioiodinated BSA were used as positive and negative control, respectively. The blood-to-brain entry during the experimental period of 15 min was evaluated by plotting the ratio of brain (Am(T)) and serum activity (Cp(T)), corrected for the brain weight and serum volume, respectively, versus the exposure time (Θ), expressing the theoretical steady state serum level of the iodinated peptide at a given serum concentration [37, 73]. The exposure time is calculated as the integral of the arterial serum radioactivity over time divided by the radioactivity at time t. The integral is calculated through the trapezoidal rule of the log-transformed data [73]. In the linear part of the curve, assuming a two-compartmental BBB model, data can be fitted using a linear model from which the unidirectional influx rate (Kin), also referred to as unidirectional blood to brain clearance K1 [46], and the initial brain distribution volume (Vi) can be determined using the following equation according to Gjedde and Patlak [37–40]: Am(T)/Cp(T)=Abrain(T)/Aserum(T)=Kin⋅Θ+Vi with Θ = ∫0TCp(t) ⋅ dt/Cp(T) (1)

[7] = test system: blood-brain barrier (BBB); experiment: Classification of peptides according to their BBB influx
Source text: This peptide is derived from the murine vascular endothelial (VE)-cadherin, located in the adherens junctions between the vascular endothelial cells, and constitutes the 13 cytosolic amino acids closest to the membrane and five amino acids from the C-terminus of the transmembrane region (615–632).

[8] = test system: blood-brain barrier (BBB); experiment: Saturability of brain influx: MTR with and without excess unlabeled peptide; set-up: species or system ICR-CD-1 mice; conditions: mouse, in vivo, iv
Description: This dose of 20 μg was determined based on the amount of peptide injected during a MTR experiment estimated based on the specific activity and taking into account the amount of non-radioactively iodinated peptide present in the injected dose. […] During this experiment, peptides are radiolabeled using a no-carrier added method in order that only radioactively labeled peptide was injected.

cellular uptake = test system: cellular uptake; set-up: method as in Stalmans et al.[1]; conditions: cell-penetrating (CP-) response, quantitative expression of cellular influx; ref Stalmans et al.[1]; cited from earlier work
[9] = test system: brain parenchyma and capillaries; experiment: Capillary depletion method: brain parenchyma/capillary distribution; type: in vivo, ICR-CD-1 mice; conditions: mouse, in vivo, iv
Description: The capillary depletion method was used to evaluate the distribution of the peptide between the brain parenchyma and capillaries. In summary (see Materials and Methods in [45]), 200 μl of a radiolabeled peptide solution (10000 cpm/μl) was injected in the jugular externalis vein of two anesthetized ICR-CD-1 mice. Ten minutes after IV injection, mice were decapitated and brains were collected and measured for radioactivity. […] The resulting homogenate was weighed and centrifuged at 5400 g for 30 min at 4°C, resulting in a pellet, i.e. capillaries, and supernatant, i.e. parenchyma and fat tissue, which were weighed and measured in the gamma counter. […] Compartmental distribution was calculated as follows: Fractioncapillaries or parenchyma (%)=[…] or parenchyma/[…]×100 (4)

[10] = test system: blood-brain barrier (BBB); experiment: Brain-to-blood transport (efflux) after intracerebroventricular injection; conditions: mouse; for t1/2,brain (half-time disappearance): in vivo
Description: Female, ICR-CD-1 mice (Harlan Laboratories, Venray, The Netherlands), aged 7 to 10 weeks and weighing 28–36 g, were used during the in vivo BBB transport experiments. All animal experiments were performed in accordance with the Ethical Committee principles of laboratory animal welfare. The protocol was approved by the Ethical Committee of the Faculty of Veterinary Science of Ghent University (Permit Numbers: 2009–052 and 2014–128). Prior to experiments, mice were anesthetized by intraperitoneal injection of a 40% urethane solution (3 g/kg) (Sigma-Aldrich, Diegem, Belgium).
For evaluation of the efflux of the peptides out of the brain, 1 μl of a radioiodinated peptide solution (25000 cpm/μl) was injected in the lateral ventricle of anesthetized ICR-CD-1 mice at a speed of 360 μl/h for 10 s using a syringe pump (KDS100, KR analytical, Cheshire, UK). […] The brain half-time disappearance (t1/2,brain) was calculated from the linear regression of the natural logarithm of the residual radioactivity in brain versus time as follows: t1/2,brain=ln(2)/kout (5) with kout defined as the efflux rate constant calculated as the absolute value of the slope of the linear regression, applying first order kinetics. An extensive description of the protocol can be found elsewhere.

BBB = conditions: after i.p. injection, fluorimetry; ref [41] of S1 Table; cited from earlier work
Source text: page 6: Supplementary Information S1 Table.

[11] = activity of the 68Ga-DOTA labeled peptide; ref [49]; cited from earlier work
Source text: For pVEC and Tat 47–57, a very high liver concentration was observed compared to the other tissues, which can indicate metabolization, but also uptake of the peptides and their metabolites in hepatocytes.

[12] = 125I-radioiodinated, IV, ICR-CD-1 mice, MTR 1-15 min, ± 65% confidence limits

Molecule: CC1(C)S[C@@H]2[C@H](NC(=O)Cc3ccccc3)C(=O)N2[C@H]1C(=O)O [Benzylpenicillin]
- Kin (brain [1]): 0.15 µL/s/g

Molecule: COc1cccc2c1C(=O)c1c(O)c3c(c(O)c1C2=O)C[C@@](O)(C(=O)CO)C[C@@H]3O[C@H]1C[C@H](N)[C@H](O)[C@H](C)O1 [Doxorubicin]
- Kin (brain [1]): 0.25 µL/s/g
- Vd (brain [2]; mouse, in vivo): < 100 µL/g

Molecule: CN1CC[C@]23c4c5ccc(O)c4O[C@H]2[C@@H](O[C@@H]2O[C@H](C(=O)O)[C@@H](O)[C@H](O)[C@H]2O)C=C[C@H]3[C@H]1C5 [Morphine-6-glucuronide]
- Kin (brain [2]; in situ brain perfusion in mice, ref [6] of S1 Table): 0.024 µL/s/g

Molecule: CC(C)c1nc(CN(C)C(=O)N[C@H](C(=O)N[C@@H](Cc2ccccc2)C[C@H](O)[C@H](Cc2ccccc2)NC(=O)OCc2cncs2)C(C)C)cs1 [Ritonavir]
- Brain drug level (brain [3]): 0.1 µg/g

Molecule: Dalargin
- Vd (brain [1]; in situ brain perfusion (single time) in rats, ref [2] of S1 Table): 16.7 µL/g

Molecule: Dermorphin [reference compound]
- Relative tissue distribution [4]: high liver distributions
- Difference in brain influx rates between the eight dissected brain regions ([5]; comparison of slopes (Kin), Prism 6, P threshold 0.05, ICR-CD-1 mice): no statistically significant difference
- Kin (unidirectional influx rate), linear Gjedde-Patlak model ([6]; 125I-radioiodinated peptide, IV jugular vein 200 μl (30000 cpm/μl), anesthetized female ICR-CD-1 mice, 1-15 min, brain/serum radioactivity (gamma counter) vs exposure time, whole brain, ± 65% confidence limits, pVEC, SynB3, TP10: two experiments fitted together): 0.63 ± 0.10 µL/g/min
- Vi (initial brain distribution volume), linear Gjedde-Patlak model ([6]; 125I-radioiodinated, IV, ICR-CD-1 mice, MTR 1-15 min, whole brain, ± 65% confidence limits): 13.98 ± 0.79 µL/g
- K1 (unidirectional clearance, slope of the initial phase), biphasic model [6, 12]: 2.54 ± 0.50 µL/g/min
- K (net clearance, slope of the plateau phase), biphasic model [6, 12]: 0.03 ± 0.06 µL/g/min
- Vg (tissue brain distribution volume), biphasic model [6, 12]: 13.72 ± 2.17 µL/g

Molecule: LLIILRRRIRKQAHAHSK-NH2 [pVEC]
- BBB influx class [7]: class 5
- Difference in brain influx rates between the eight dissected brain regions ([5]; mouse, in vivo): significantly differed
- Kin, cerebellum ([5]; mouse, in vivo, iv): 5.61 [5.12, 6.10] μl/(g × min)
- Kin, frontal cortex ([5]; mouse, in vivo, iv): 4.84 [4.66, 5.02] μl/(g × min)
- Kin, hippocampus ([5]; mouse, in vivo, iv): 3.94 [3.51, 4.37] μl/(g × min)
- Kin, midbrain ([5]; mouse, in vivo, iv): 5.32 [5.17, 5.46] μl/(g × min)
- Kin, occipital and parietal cortex ([5]; mouse, in vivo, iv): 5.03 [4.73, 5.32] μl/(g × min)
- Kin, pons medulla ([5]; mouse, in vivo, iv): 4.51 [3.87, 5.15] μl/(g × min)
- Kin, striatum ([5]; mouse, in vivo, iv): 4.07 [3.77, 4.37] μl/(g × min)
- Kin, thalamus and hypothalamus ([5]; mouse, in vivo, iv): 4.12 [3.86, 4.38] μl/(g × min)
- Kin, whole brain ([5]; mouse, in vivo, iv): 6.04 [5.78, 6.30] μl/(g × min)
- Vi, cerebellum ([5]; mouse, in vivo, iv): 21.02 [15.09, 26.95] μl/g
- Vi, frontal cortex ([5]; mouse, in vivo, iv): 12.93 [10.77, 15.09] μl/g
- Vi, hippocampus ([5]; mouse, in vivo, iv): 9.33 [4.13, 14.54] μl/g
- Vi, midbrain ([5]; mouse, in vivo, iv): 13.88 [12.15, 15.62] μl/g
- Vi, occipital and parietal cortex ([5]; mouse, in vivo, iv): 16.61 [13.02, 20.19] μl/g
- Vi, pons medulla ([5]; mouse, in vivo, iv): 36.06 [28.34, 43.78] μl/g
- Vi, striatum ([5]; mouse, in vivo, iv): 11.47 [7.81, 15.13] μl/g
- Vi, thalamus and hypothalamus ([5]; mouse, in vivo, iv): 17.72 [11.58, 17.86] μl/g
- Vi, whole brain ([5]; mouse, in vivo, iv): 24.37 [21.23, 27.51] μl/g
- Vi with excess dose of unlabeled peptide [8]: 1 µL/g
- CP-response (cellular uptake): 1.318
- Parenchymal fraction [9]: 80%
- Kin (unidirectional influx rate), linear Gjedde-Patlak model ([6]; mouse, in vivo, iv): 6.02 ± 0.29 µL/g/min
- Maximal ratio of brain-to-serum radioactivity ([6]; mouse, in vivo, iv): about 180 μl/g
- kout (efflux transfer constant) [10]: 0.10 ± 0.11 min⁻¹

Molecule: RRLSYSRRRF-NH2 [SynB3]
- BBB influx class [7]: class 5
- Difference in brain influx rates between the eight dissected brain regions ([5]; mouse, in vivo): no statistically significant difference
- CP-response (cellular uptake): 0.126
- Parenchymal fraction [9]: 77%
- K1 (unidirectional clearance, slope of the initial phase), biphasic model ([6]; mouse, in vivo, iv): 29.84 ± 8.42 µL/g/min
- Kin (unidirectional influx rate), linear Gjedde-Patlak model ([6]; mouse, in vivo, iv): 5.63 ± 1.83 µL/g/min
- Maximal ratio of brain-to-serum radioactivity ([6]; mouse, in vivo, iv): about 70 μl/g
- kout (efflux transfer constant) [10]: 0.05 ± 0.01 min⁻¹
- t1/2,brain (half-time disappearance) [10]: 15 min

Molecule: TP10
- CP-response (cellular uptake): 1.641

Molecule: VIP: cargo peptide VIP alone
- Brain uptake efficiency (BBB): 0.78

Molecule: YGRKKRRQRRR-NH2 [Tat 47–57]
- BBB influx class [7]: class 5
- CP-response (cellular uptake): 0.309
- Parenchymal fraction [9]: 79%
- K1 (unidirectional clearance, slope of the initial phase), biphasic model [6, 12]: 13.50 ± 3.88 µL/g/min
- K (net clearance, slope of the plateau phase), biphasic model ([6]; mouse, in vivo, iv): 0.27 ± 0.46 µL/g/min
- Kin (unidirectional influx rate), linear Gjedde-Patlak model ([6]; mouse, in vivo, iv): 4.73 ± 1.23 µL/g/min
- kout (efflux transfer constant) [10]: 0.21 ± 0.08 min⁻¹
- t1/2,brain (half-time disappearance) [10]: 3 min

Molecule: ^68Ga-DOTA labeled pVEC: 68Ga-DOTA labeled pVEC of a literature study (TLLIILRRRIRKQAHAHS; also: 68Ga-DOTA label (site not given here); UniProt P55284 615-632, looked up, fragment)
- (human) serum half-life [11]: a few hours
